# Data published in patent publication US20240109892A1, “POLY(ADP-RIBOSE) GLYCOHYDROLASE (PARG) INHIBITORS AGAINST COVID MACRODOMAIN AND METHODS OF USING THE SAME” (BOARD OF REGENTS, THE UNIVERSITY OF TEXAS SYSTEM, priority 2021, published 2024).
# Read-outs that look alike come from different tables or passages of the source.
# Columns and labels:
# CoV-2 Mac1 [1] = target: T1, CoV-2 Mac1 (Severe acute respiratory syndrome coronavirus 2, UniProt P0DTC1); assay: biochemical; type: binding
# CoV-2 Mac1 [2] = target: T1, CoV-2 Mac1; assay: Microscale thermophoresis (MST) binding affinity measurements with CoV-2 Mac1; details: preliminary measurements
# [3] = pH 7.5; cited from earlier work
SMILES,"ΔG (CoV-2 Mac1 [1]; ITC, 25° C.)","ΔH (CoV-2 Mac1 [1]; ITC, 25° C.)","−TΔS (CoV-2 Mac1 [1]; ITC, 25° C.)","Kd (CoV-2 Mac1 [1]; ITC, 25° C., 25 mM HEPES pH 7.5, 150 mM NaCl, read-out: Kd)",Kd (CoV-2 Mac1 [1]; read-out: dissociation constant Kd),binding to the Mac1 domain by ITC (CoV-2 Mac1 [1]),binding to the Mac1 domain by MST (CoV-2 Mac1 [2]),pKa of morpholine nitrogen atom [3]
"Nc1ncnc2c1ncn2[C@@H]1O[C@H](COP(=O)(O)OP(=O)(O)OC[C@H]2OC(O)[C@H](O)[C@@H]2O)[C@@H](O)[C@H]1O (stereo partly shown) [ADPr, ADP-ribose]",-6.74 kcal/mol,-9.18 kcal/mol,2.43 kcal/mol,11.6 µM,10 to 12 µM,–,–,–
Cn1c(=O)c2[nH]c(SCCCNC(=S)NCCN3CCOCC3)nc2n(C)c1=O [PARG-329],–,–,–,–,–,fails to detect a robust interaction,micromolar affinity,–
"Cn1c(=O)c2[nH]c(SCCC(=O)NS(=O)(=O)CCN3CCOCC3)nc2n(C)c1=O [PARG-345, 3-((1,3-dimethyl-2,6-dioxo-2,3,6,7-tetrahydro-1H-purin-8-yl)thio)-N-((2-morpholinoethyl)sulfonyl)propanamide]",–,–,–,–,–,fails to detect a robust interaction,micromolar affinity,~8.3
